In US4100346A, “Certain 7(o-amino-methyl- or methylaminomethylphenyl- or cyclohexadienyl- or thienylacetamide)-3[1-carboxymethyl-(or ethyl- or propyl-)-tetrazol-5-ylthiomethyl]-3-cephem-4-carboxylic acids” (Bristol-Myers Company, priority 1976, dated 1978):
Values after ≈ are worked out from the molar mass of the structure shown. Where two headings read alike, the source gives them in different places.

Key:
Staphylococcus Aureus [1] = assay: Effect of inoculum size on susceptibility of Staphylococcus aureus; type: cell-based; conditions: for MICB /MICA: MIC at 10^6 over MIC at 10^2 organisms; for MIC: Staphylococcus aureus, read-out: Minimum inhibitory concentration
[2] = target: staphylococcal β-lactamase, Staphylococcus aureus A9606 (Staphylococcus aureus, UniProt P00807); assay: Hydrolysis by β-lactamase in cell-free extracts; type: biochemical; conditions: cell-free extract
Sequence of staphylococcal β-lactamase, Staphylococcus aureus A9606 (P00807 25-281): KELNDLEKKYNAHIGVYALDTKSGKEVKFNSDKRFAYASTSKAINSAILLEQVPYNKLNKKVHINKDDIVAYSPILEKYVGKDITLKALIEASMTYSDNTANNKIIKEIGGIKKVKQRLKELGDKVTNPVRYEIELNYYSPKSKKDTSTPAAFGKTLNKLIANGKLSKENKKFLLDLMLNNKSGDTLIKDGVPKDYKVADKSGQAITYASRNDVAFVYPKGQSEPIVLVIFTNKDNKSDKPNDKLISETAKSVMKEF
Experimental: Miscellaneous. Methods for determining bactericidal activity and susceptibility to cell-free β-lactamase were those previously used; Leitner et al., BL-S640, A Cephalosporin With a Broad Spectrum of Antibacterial Activity: Properties in vitro, Antimicrob. Agents Chemother. 7:298-305 (1975).
Susceptibility to β-lactamase. Susceptibility to enzymic hydrolysis was assessed by determining relative rates of hydrolysis by cell-free preparations of various β-lactamases (Table 6). BL-S786 was slightly to markedly less susceptible than the other cephalosporins to hydrolysis by β-lactamases of Type Ia, Ib, IIIa and IVa. All cephalosporins were poor substrates for Type IIa and staphylococcal β-lactamases. The four cephalosporins were hydrolyzed at similar rates by the Type IVb enzyme.

Staphylococcus aureus [3] = assay: Intramuscular treatment of systemically infected mice; type: in vivo; conditions: im, read-out: PD50 /treatment
Source text: (§1) Treatment of Systemically Infected Mice. The procedures were identical with those published previously [Leitner et al., BL-S640, a Cephalosporin With a Broad Spectrum of Antibacterial Activity: Bioavailability and Therapeutic Properties in Rodents, Antimicrob. Agents Chemother. 7:306-310, (1975)], except that:
(§2) (a) the hog gastric mucin used in infections with Staphylococcus aureus No. 2 was purchased from American Laboratories, Inc., Omaha, Neb. (lot No. 154163) and b) that the medium used to suspend all other organisms contained 3% (rather than 4%) hog gastric mucin (type 1701W, Wilson Laboratories, Inc., Park Forest South, Ill.).
(§3) *Animals infected with penicillinase-producing staphyloccal strains (No.
(§4) and 3) were treated 0 and 2 hours after infection; the others were treate
(§5) 1 and 3.5 hours after infection.

Streptococcus pneumoniae = assay: as above; type: in vivo; conditions: im, 3.5 h, read-out: PD50 /treatment
Source text: as §1, §2, §3, §4, §5

Streptococcus pyogenes = assay: as above; type: in vivo; conditions: im, 3.5 h, read-out: PD50 /treatment
Source text: as §1, §2, §3, §4, §5

in vitro = in vitro ADME, human; conditions: In 95% human serum; read-out: protein bound (converted)
Edwardsiella tarda = assay: Growth inhibitory activity, antibiotic dilution technique; conditions: read-out: Minimum inhibitory concentration
Citrobacter sp. = assay: as above
Erwinia sp. = assay: as above; conditions: read-out: Minimum inhibitory concentration
Pasteurella multocida = assay: as above; conditions: read-out: Minimum inhibitory concentration
Pseudomonas aeruginosa = assay: as above; conditions: read-out: Minimum inhibitory concentration
Alcaligenes sp. = assay: as above
Providencia stuartii = assay: as above; conditions: Providencia stuartii strains; at a concentration of 16 mcg./ml.
Haemophilus influenzae = assay: as above; conditions: including 9 ampicillin-resistant strains
Escherichia coli = assay: Effect of inoculum size on susceptibility of Enterobacteriaceae
Enterobacter cloacae = assay: as above
Proteus mirabilis = assay: as above
Proteus vulgaris = assay: as above

In the case of `NCc1ccccc1CC(=O)N[C@@H]1C(=O)N2C(C(=O)O)=C(CSc3nnnn3CC(=O)O)CS[C@H]12` [Example 1], the “MICB /MICA” value (Staphylococcus Aureus [1]; Lacking penicillinase, 3 strains) is reported as 1.6, the “MICB /MICA” value (Staphylococcus Aureus [1]; Penicillinase producer, 26 strains) is reported as 1.5 and the MIC (Staphylococcus Aureus [1]; Lacking penicillinase, 3 strains, B, inoculum of 10^6 organisms, geometric means) is reported as 2.5 µg/mL (≈ 4.81 µM). For the same compound, the MIC (Staphylococcus Aureus [1]; Penicillinase producer, 26 strains, A, Inoculum of 10^2 organisms, geometric means) was 3.8 µg/mL (≈ 7.31 µM), the MIC (Staphylococcus Aureus [1]; Penicillinase producer, 26 strains, B, inoculum of 10^6 organisms, geometric means) was 5.7 µg/mL (≈ 11 µM) and the MIC (Staphylococcus Aureus [1]) was 1.6 µg/mL (≈ 3.08 µM). For the same compound, the “effect of cell concentration on growth inhibitory activity” value (Staphylococcus Aureus [1]; penicillinase-producing strains) was “slightly”, the “Relative Rate of Hydrolysis (benzylpenicillin = 100)” value [2] was < 0.5 and the ED50 (Staphylococcus aureus [3]; 3.5 h, Staphylococcus aureus strain 1, challenge 2 × 10^5 - 3 × 10^5, treated 1 and 3.5 hours after infection) was 0.3 mg/kg. It also gave an ED50 (Staphylococcus aureus [3]; Staphylococcus aureus strain 2 (penicillinase-producing), challenge 1 × 10^9, treated 0 and 2 hours after infection) of 5.4 mg/kg, an ED50 (Staphylococcus aureus [3]; Staphylococcus aureus strain 3 (penicillinase-producing), challenge 5 × 10^8 - 7 × 10^9, treated 0 and 2 hours after infection) of 10 mg/kg and an ED50 (Streptococcus pneumoniae; Streptococcus pneumoniae strain 1, challenge 2 × 10^3 - 9 × 10^3, treated 1 and 3.5 hours after infection) of 0.52 mg/kg. It also gave an ED50 (Streptococcus pneumoniae; Streptococcus pneumoniae strain 2, challenge 1 × 10^4 - 3 × 10^4, treated 1 and 3.5 hours after infection) of 1.6 mg/kg, an ED50 (Streptococcus pyogenes; Streptococcus pyogenes strain 1, challenge 2 × 10^3 -6 × 10^3, treated 1 and 3.5 hours after infection) of 2.9 mg/kg and an ED50 (Streptococcus pyogenes; Streptococcus pyogenes strain 2, challenge 1 × 10^4 - 5 × 10^4, treated 1 and 3.5 hours after infection) of 0.93 mg/kg. The fraction unbound (in vitro) was 0.33, the MIC (Edwardsiella tarda) was 0.13 µg/mL (≈ 0.25 µM) and the MIC (Citrobacter sp.; read-out: Minimum inhibitory concentration) was 1 µg/mL (≈ 1.92 µM). The MIC (Citrobacter sp.; read-out: Minimum inhibitory concentration, Citrobacter sp., 1 strain) was 125 µg/mL (≈ 241 µM), the MIC (Erwinia sp.) was 0.66 µg/mL (≈ 1.27 µM) and the MIC (Pasteurella multocida) was 0.25 µg/mL (≈ 0.481 µM). The MIC (Pseudomonas aeruginosa) was > 125 µg/mL, the MIC (Alcaligenes sp.; read-out: Minimum inhibitory concentration, Alcaligenes sp., 2 strains, geometric mean when applicable) was 63 µg/mL (≈ 121 µM) and the MIC (Alcaligenes sp.; read-out: Minimum inhibitory concentration, Alcaligenes sp., 4 strains, geometric mean when applicable) was > 125 µg/mL. For the same compound, the MIC (Alcaligenes sp.; read-out: Minimum inhibitory concentration, Alcaligenes sp., 5 strains, geometric mean when applicable) was 2.6 µg/mL (≈ 5 µM), the “percent of strains inhibited” value (Providencia stuartii) was “Ninety-eight” and the “relative activity against Haemophilus influenzae” value (Haemophilus influenzae) was “about equally active”. It also gave an MIC (Escherichia coli; read-out: Minimum Inhibitory Concentration, Escherichia coli strain 1, A, Inoculum of 10^2 organisms) of 0.5 µg/mL (≈ 0.962 µM), an MIC (Escherichia coli; read-out: Minimum Inhibitory Concentration, Escherichia coli strain 1, B, Inoculum of 10^6 organisms) of 2 µg/mL (≈ 3.85 µM) and an MIC (Escherichia coli; read-out: Minimum Inhibitory Concentration, Escherichia coli strain 2, A, Inoculum of 10^2 organisms) of 4 µg/mL (≈ 7.7 µM). The MIC (Escherichia coli; read-out: Minimum Inhibitory Concentration, Escherichia coli strain 2, B, Inoculum of 10^6 organisms) was 32 µg/mL (≈ 61.6 µM), the MIC (Escherichia coli; read-out: Minimum Inhibitory Concentration, Escherichia coli strain 3, A, Inoculum of 10^2 organisms) was 0.25 µg/mL (≈ 0.481 µM) and the MIC (Escherichia coli; read-out: Minimum Inhibitory Concentration, Escherichia coli strain 3, B, Inoculum of 10^6 organisms) was 1 µg/mL (≈ 1.92 µM). It also gave an MIC (Escherichia coli; read-out: Minimum Inhibitory Concentration, Escherichia coli strain 4, A, Inoculum of 10^2 organisms) of 0.5 µg/mL (≈ 0.962 µM), an MIC (Escherichia coli; read-out: Minimum Inhibitory Concentration, Escherichia coli strain 4, B, Inoculum of 10^6 organisms) of 2 µg/mL (≈ 3.85 µM) and an MIC (Escherichia coli; read-out: Minimum Inhibitory Concentration, Escherichia coli strain 5, A, Inoculum of 10^2 organisms) of 1 µg/mL (≈ 1.92 µM). For the same compound, the MIC (Escherichia coli; read-out: Minimum Inhibitory Concentration, Escherichia coli strain 5, B, Inoculum of 10^6 organisms) was 2 µg/mL (≈ 3.85 µM), the MIC (Escherichia coli; read-out: Minimum Inhibitory Concentration, Escherichia coli strain 6, A, Inoculum of 10^2 organisms) was 0.5 µg/mL (≈ 0.962 µM) and the MIC (Escherichia coli; read-out: Minimum Inhibitory Concentration, Escherichia coli strain 6, B, Inoculum of 10^6 organisms) was 2 µg/mL (≈ 3.85 µM). The MIC (Escherichia coli; read-out: Minimum Inhibitory Concentration, Escherichia coli strain 7, A, Inoculum of 10^2 organisms) was 0.25 µg/mL (≈ 0.481 µM), the MIC (Escherichia coli; read-out: Minimum Inhibitory Concentration, Escherichia coli strain 7, B, Inoculum of 10^6 organisms) was 2 µg/mL (≈ 3.85 µM) and the MIC (Enterobacter cloacae; read-out: Minimum Inhibitory Concentration, Enterobacter cloacae strain 1, A, Inoculum of 10^2 organisms) was 1 µg/mL (≈ 1.92 µM). The MIC (Enterobacter cloacae; read-out: Minimum Inhibitory Concentration, Enterobacter cloacae strain 1, B, Inoculum of 10^6 organisms) was > 250 µg/mL, the MIC (Enterobacter cloacae; read-out: Minimum Inhibitory Concentration, Enterobacter cloacae strain 2, A, Inoculum of 10^2 organisms) was 1 µg/mL (≈ 1.92 µM) and the MIC (Enterobacter cloacae; read-out: Minimum Inhibitory Concentration, Enterobacter cloacae strain 2, B, Inoculum of 10^6 organisms) was > 250 µg/mL. For the same compound, the MIC (Enterobacter cloacae; read-out: Minimum Inhibitory Concentration, Enterobacter cloacae strain 3, A, Inoculum of 10^2 organisms) was 2 µg/mL (≈ 3.85 µM), the MIC (Enterobacter cloacae; read-out: Minimum Inhibitory Concentration, Enterobacter cloacae strain 3, B, Inoculum of 10^6 organisms) was > 250 µg/mL and the MIC (Enterobacter cloacae; read-out: Minimum Inhibitory Concentration, Enterobacter cloacae strain 4, A, Inoculum of 10^2 organisms) was 2 µg/mL (≈ 3.85 µM). The MIC (Enterobacter cloacae; read-out: Minimum Inhibitory Concentration, Enterobacter cloacae strain 4, B, Inoculum of 10^6 organisms) was > 250 µg/mL, the MIC (Enterobacter cloacae; read-out: Minimum Inhibitory Concentration, Enterobacter cloacae strain 5, A, Inoculum of 10^2 organisms) was 8 µg/mL (≈ 15.4 µM) and the MIC (Enterobacter cloacae; read-out: Minimum Inhibitory Concentration, Enterobacter cloacae strain 5, B, Inoculum of 10^6 organisms) was 250 µg/mL (≈ 481 µM). It also gave an MIC (Proteus mirabilis; read-out: Minimum Inhibitory Concentration, Proteus mirabilis strain 1, A, Inoculum of 10^2 organisms) of 0.5 µg/mL (≈ 0.962 µM), an MIC (Proteus mirabilis; read-out: Minimum Inhibitory Concentration, Proteus mirabilis strain 1, B, Inoculum of 10^6 organisms) of 2 µg/mL (≈ 3.85 µM) and an MIC (Proteus mirabilis; read-out: Minimum Inhibitory Concentration, Proteus mirabilis strain 2, A, Inoculum of 10^2 organisms) of 0.5 µg/mL (≈ 0.962 µM). The MIC (Proteus mirabilis; read-out: Minimum Inhibitory Concentration, Proteus mirabilis strain 2, B, Inoculum of 10^6 organisms) was 4 µg/mL (≈ 7.7 µM), the MIC (Proteus mirabilis; read-out: Minimum Inhibitory Concentration, Proteus mirabilis strain 3, A, Inoculum of 10^2 organisms) was 0.5 µg/mL (≈ 0.962 µM) and the MIC (Proteus mirabilis; read-out: Minimum Inhibitory Concentration, Proteus mirabilis strain 3, B, Inoculum of 10^6 organisms) was 2 µg/mL (≈ 3.85 µM). The MIC (Proteus mirabilis; read-out: Minimum Inhibitory Concentration, Proteus mirabilis strain 4, A, Inoculum of 10^2 organisms) was 0.5 µg/mL (≈ 0.962 µM), the MIC (Proteus mirabilis; read-out: Minimum Inhibitory Concentration, Proteus mirabilis strain 4, B, Inoculum of 10^6 organisms) was 2 µg/mL (≈ 3.85 µM) and the MIC (Proteus mirabilis; read-out: Minimum Inhibitory Concentration, Proteus mirabilis strain 5, A, Inoculum of 10^2 organisms) was 0.5 µg/mL (≈ 0.962 µM). For the same compound, the MIC (Proteus mirabilis; read-out: Minimum Inhibitory Concentration, Proteus mirabilis strain 5, B, Inoculum of 10^6 organisms) was 4 µg/mL (≈ 7.7 µM), the MIC (Proteus vulgaris; read-out: Minimum Inhibitory Concentration, Proteus vulgaris strain 1, A, Inoculum of 10^2 organisms) was 1 µg/mL (≈ 1.92 µM) and the MIC (Proteus vulgaris; read-out: Minimum Inhibitory Concentration, Proteus vulgaris strain 1, B, Inoculum of 10^6 organisms) was 4 µg/mL (≈ 7.7 µM). The MIC (Proteus vulgaris; read-out: Minimum Inhibitory Concentration, Proteus vulgaris strain 2, A, Inoculum of 10^2 organisms) was 1 µg/mL (≈ 1.92 µM), the MIC (Proteus vulgaris; read-out: Minimum Inhibitory Concentration, Proteus vulgaris strain 2, B, Inoculum of 10^6 organisms) was 8 µg/mL (≈ 15.4 µM) and the MIC (Proteus vulgaris; read-out: Minimum Inhibitory Concentration, Proteus vulgaris strain 4, A, Inoculum of 10^2 organisms) was 1 µg/mL (≈ 1.92 µM). It also gave an MIC (Proteus vulgaris; read-out: Minimum Inhibitory Concentration, Proteus vulgaris strain 4, B, Inoculum of 10^6 organisms) of 8 µg/mL (≈ 15.4 µM).
